Measured values as given in US12146004B2, “Polymyxin compounds and uses thereof” (priority 2014, dated 2024).
≈ marks a conversion by molar mass, not a printed value. Read-outs that look alike come from different tables or passages of the source. Numbered stars: 1 amine (or outer) side, 2 acyl side, 3 side chain; on linkers, the order of the positions; unused ones are H or OH. Bridge positions count the residues as written; N and C are the ends. Square brackets hold non-standard residues; d marks the D form. Peptide text beside a SMILES is read from it. * marks the point of attachment. ξ: configuration not given here. X5 = CCCCCCCCc1ccc(C[C@@H](N[*:1])C(=O)[*:2])cc1; X23 = NCC[C@H](OCc1ccccc1)C(=O)*; dCha = N[C@H](CC1CCCCC1)C(=O)O; Thr(3ξ) = CC(O)[C@H](N)C(=O)O; X25 = CCCCO[C@@H](CCN)C(=O)*; X20 = NCC(Cc1ccccc1F)C(=O)*; X4 = CC(C)CC1CNCC(C(=O)*)C1; Dab = NCC[C@H](N)C(=O)O; Dap = NC[C@H](N)C(=O)O

Assays:
Format in all cases: cell-based
[1] = test system: Acinetobacter baumannii
Summary of the method: (§1)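 Strain panels of up to nine per species, with resistant and Polymyxin-tolerant strains included, were used for susceptibility testing; read-out was MIC (μg/mL).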

[2] = test system: Escherichia coli
Summary of the method: as §1

[3] = test system: Klebsiella pneumoniae
Summary of the method: as §1

[4] = test system: Pseudomonas aeruginosa
Summary of the method: as §1

Row | Structure (SMILES) | MIC A. baumanii ATCC BAA-747 [1] [mg/L] | MIC A. baumanii NCTC 13424 [1] [mg/L] | MIC E. coli 058 [2] [mg/L] | MIC E. coli ATCC 25922 [2] [mg/L] | MIC K. pneumoniae 065 [3] [mg/L] | MIC K. pneumoniae ATCC 13882 [3] [mg/L] | MIC P. aeruginosa ATCC 27853 [4] [mg/L] | MIC P. aeruginosa CCUG 59347 [4] [mg/L] | MIC A. baumanii 053 [1] [mg/L] | MIC A. baumanii 056 [1] [mg/L] | MIC E. coli 061 [2] [mg/L] | MIC K. pneumoniae 063 [3] [mg/L] | MIC P. aeruginosa 068 [4] [mg/L] | MIC P. aeruginosa 070 [4] [mg/L] | MIC E. coli 059 [2] [mg/L] | MIC E. coli 060 [2] [mg/L] | MIC K. pneumoniae 062 [3] [mg/L] | MIC K. pneumoniae 064 [3] [mg/L] | MIC K. pneumoniae 066 [3] [mg/L] | MIC K. pneumoniae 067 [3] [mg/L] | also measured
1 | CC(C)C[C@@H]1NC(=O)[C@@H](CC2CCCCC2)NC(=O)[C@H](CCN)NC(=O)[C@@H](NC(=O)[C@H](CCN)NC(=O)[C@@H](NC(=O)CC(CN)Cc2ccccc2)[C@@H](C)O)CCNC(=O)[C@H]([C@@H](C)O)NC(=O)[C@H](CCN)NC(=O)[C@H](CCN)NC1=O (single isomer, unassigned; isomer 1) [Example 66, 4-amino-3-benzylbutanoyl polymyxin [D-cyclohexylalanine]-6 nonapeptide isomer 1] | – | – | – | – | – | – | – | – | – | – | – | – | – | – | – | – | – | – | – | – | MIC A. baumanii 053 ([1]; strain 053): >64 mg/L; MIC A. baumanii 056 ([1]; strain 056): 64 mg/L (≈ 55.9 µM); MIC A. baumanii ATCC BAA-747 ([1]; strain ATCC BAA-747): 0.125 mg/L (≈ 0.109 µM); MIC A. baumanii NCTC 13424 ([1]; strain NCTC 13424): 0.06 mg/L (≈ 0.0524 µM); MIC E. coli 058 ([2]; strain 058): 8 mg/L (≈ 6.99 µM); MIC E. coli 061 ([2]; strain 061): 32 mg/L (≈ 28 µM); MIC E. coli ATCC 25922 ([2]; strain ATCC 25922): 0.125 mg/L (≈ 0.109 µM); MIC K. pneumoniae 063 ([3]; strain 063): 64 mg/L (≈ 55.9 µM); MIC K. pneumoniae 065 ([3]; strain 065): 4 mg/L (≈ 3.5 µM); MIC K. pneumoniae ATCC 13882 ([3]; strain ATCC 13882): 0.125 mg/L (≈ 0.109 µM); MIC P. aeruginosa 068 ([4]; strain 068): 8 mg/L (≈ 6.99 µM); MIC P. aeruginosa 070 ([4]; strain 070): 32 mg/L (≈ 28 µM); MIC P. aeruginosa ATCC 27853 ([4]; strain ATCC 27853): 0.25 mg/L (≈ 0.218 µM); MIC P. aeruginosa CCUG 59347 ([4]; strain CCUG 59347): 0.5 mg/L (≈ 0.437 µM)
2 | CCC(C)CC(CCN)C(=O)N[C@H](C(=O)N[C@@H](CN)C(=O)N[C@H]1CCNC(=O)[C@H]([C@@H](C)O)NC(=O)[C@H](CCN)NC(=O)[C@H](CCN)NC(=O)[C@H](CC(C)C)NC(=O)[C@@H](CC2CCCCC2)NC(=O)[C@H](CCN)NC1=O)C(C)O (single isomer, unassigned; isomer 2) [Example 47, 2-(2-aminoethyl)-4-methylhexanoyl L-Thr-L-Dap-polymyxin [D-cyclohexylalanine]-6 heptapeptide. Isomer 2] | 0.125 (≈ 0.113 µM) | 0.25 (≈ 0.225 µM) | 4 (≈ 3.6 µM) | 0.25 (≈ 0.225 µM) | 0.5 (≈ 0.45 µM) | 0.5 (≈ 0.45 µM) | 0.5 (≈ 0.45 µM) | 0.5 (≈ 0.45 µM) | – | – | – | – | – | – | – | – | – | – | – | – | MIC E. coli NCTC 9001 [2]: 0.125 mg/L (≈ 0.113 µM)
3 | CC(C)C[C@@H]1NC(=O)[C@@H](CC2CCCCC2)NC(=O)[C@H](CCN)NC(=O)[C@@H](NC(=O)[C@H](CCN)NC(=O)[C@@H](NC(=O)C(CN)Cc2ccccc2F)[C@@H](C)O)CCNC(=O)[C@H]([C@@H](C)O)NC(=O)[C@H](CCN)NC(=O)[C@H](CCN)NC1=O (some centres unmarked) [Example 62, 3-amino-2-(2-fluorobenzyl) propanoyl] (X20-T[Dab][Dab][Dab][dCha]L[Dab][Dab]T; lactam 3-C) | 0.5 (≈ 0.435 µM) | 0.5 (≈ 0.435 µM) | 4 (≈ 3.48 µM) | 0.125 (≈ 0.109 µM) | 8 (≈ 6.97 µM) | 0.125 (≈ 0.109 µM) | 0.5 (≈ 0.435 µM) | 0.5 (≈ 0.435 µM) | >64 | >64 | 32 (≈ 27.9 µM) | 64 (≈ 55.7 µM) | 8 (≈ 6.97 µM) | 16 (≈ 13.9 µM) | – | – | – | – | – | – | –
4 | CC(C)C[C@@H]1NC(=O)[C@@H](CC2CCCCC2)NC(=O)[C@H](CCN)NC(=O)[C@@H](NC(=O)[C@H](CN)NC(=O)[C@@H](NC(=O)[C@H](CCN)OCc2ccccc2)C(C)O)CCNC(=O)[C@H]([C@@H](C)O)NC(=O)[C@H](CCN)NC(=O)[C@H](CCN)NC1=O (stereo partly drawn) [Example 48, (S)-4-amino-2-(benzyloxy) butanoyl L-Thr-L-Dap-polymyxin [D-cyclohexylalanine]-6 heptapeptide.] (X23-[Thr(3ξ)][Dap][Dab][Dab][dCha]L[Dab][Dab]T; lactam 3-C) | 0.125 (≈ 0.109 µM) | 0.25 (≈ 0.218 µM) | 4 (≈ 3.49 µM) | 0.125 (≈ 0.109 µM) | 5 (≈ 4.36 µM) | 0.125 (≈ 0.109 µM) | 0.25 (≈ 0.218 µM) | 0.25 (≈ 0.218 µM) | >64 | 32 (≈ 27.9 µM) | 32 (≈ 27.9 µM) | 64 (≈ 55.8 µM) | 8 (≈ 6.98 µM) | 16 (≈ 14 µM) | – | – | – | – | – | – | –
5 | CCCCCC/C=C/c1ccc(C[C@H]2NC(=O)[C@H](CCN)NC(=O)[C@@H](NC(=O)[C@H](CN)NC(=O)[C@@H](NC(=O)C3CNCC(CC(C)C)C3)C(C)O)CCNC(=O)[C@H]([C@@H](C)O)NC(=O)[C@H](CCN)NC(=O)[C@H](CCN)NC(=O)[C@H](CC(C)C)NC2=O)cc1 (single isomer, unassigned; isomer 2) [Example 18, (trans-5-(isobutyl-piperidine)-3-carbonyl L-Thr-L-Dap-polymyxin [D-(4-(E)-oct-1-enyl)-Phe]-6]heptapeptide Isomer 2] | 2 (≈ 1.63 µM) | – | 2 (≈ 1.63 µM) | 2 (≈ 1.63 µM) | 2 (≈ 1.63 µM) | – | 2 (≈ 1.63 µM) | – | 2 (≈ 1.63 µM) | 2 (≈ 1.63 µM) | 2 (≈ 1.63 µM) | 4 (≈ 3.26 µM) | 4 (≈ 3.26 µM) | 4 (≈ 3.26 µM) | 1 (≈ 0.815 µM) | 2 (≈ 1.63 µM) | 2 (≈ 1.63 µM) | 4 (≈ 3.26 µM) | 2 (≈ 1.63 µM) | 4 (≈ 3.26 µM) | MIC K. pneumoniae ATCC 4352 [3]: 2 mg/L (≈ 1.63 µM)
6 | CCCCCCCCc1ccc(C[C@H]2NC(=O)[C@H](CCN)NC(=O)[C@@H](NC(=O)[C@H](CN)NC(=O)[C@@H](NC(=O)C3CNCC(CC(C)C)C3)C(C)O)CCNC(=O)[C@H]([C@@H](C)O)NC(=O)[C@H](CCN)NC(=O)[C@H](CCN)NC(=O)[C@H](CC(C)C)NC2=O)cc1 (some centres unmarked) [Example 23] (X4-[Thr(3ξ)][Dap][Dab][Dab][X5]L[Dab][Dab]T; lactam 3-C) | 2 (≈ 1.63 µM) | – | 2 (≈ 1.63 µM) | 2 (≈ 1.63 µM) | 2 (≈ 1.63 µM) | – | 2 (≈ 1.63 µM) | – | 2 (≈ 1.63 µM) | 1 (≈ 0.814 µM) | 2 (≈ 1.63 µM) | 8 (≈ 6.51 µM) | 4 (≈ 3.26 µM) | 4 (≈ 3.26 µM) | 2 (≈ 1.63 µM) | 2 (≈ 1.63 µM) | 4 (≈ 3.26 µM) | 4 (≈ 3.26 µM) | 2 (≈ 1.63 µM) | 4 (≈ 3.26 µM) | MIC K. pneumoniae ATCC 4352 [3]: 1 mg/L (≈ 0.814 µM)
7 | CCCCCCCCC1CNCC1C(=O)N[C@H](C(=O)N[C@@H](CCN)C(=O)N[C@H]1CCNC(=O)[C@H]([C@@H](C)O)NC(=O)[C@H](CCN)NC(=O)[C@H](CCN)NC(=O)[C@H](CC(C)C)NC(=O)[C@@H](Cc2ccc(-c3ccccc3)cc2)NC(=O)[C@H](CCN)NC1=O)C(C)O (single isomer, unassigned; isomer 1) [Example 7, trans-4-octylpyrrolidine-3-carbonyl polymyxin [D-(4-phenyl)Phe]-6] nonapeptide. Isomer 1] | 1 (≈ 0.801 µM) | – | 2 (≈ 1.6 µM) | 1 (≈ 0.801 µM) | 1 (≈ 0.801 µM) | – | – | – | 8 (≈ 6.41 µM) | 4 (≈ 3.2 µM) | 8 (≈ 6.41 µM) | 32 (≈ 25.6 µM) | 2 (≈ 1.6 µM) | 2 (≈ 1.6 µM) | 1 (≈ 0.801 µM) | 4 (≈ 3.2 µM) | 16 (≈ 12.8 µM) | 8 (≈ 6.41 µM) | 4 (≈ 3.2 µM) | 32 (≈ 25.6 µM) | MIC K. pneumoniae ATCC 4352 [3]: 1 mg/L (≈ 0.801 µM)
8 | CCCCO[C@@H](CCN)C(=O)N[C@H](C(=O)N[C@@H](CN)C(=O)N[C@H]1CCNC(=O)[C@H]([C@@H](C)O)NC(=O)[C@H](CCN)NC(=O)[C@H](CCN)NC(=O)[C@H](CC(C)C)NC(=O)[C@@H](CC2CCCCC2)NC(=O)[C@H](CCN)NC1=O)C(C)O (stereo partly drawn) [Example 46, (S)-4-amino-2-butoxybutanoyl L-Thr-L-Dap-polymyxin [D-cyclohexylalanine]-6 heptapeptide.] (X25-[Thr(3ξ)][Dap][Dab][Dab][dCha]L[Dab][Dab]T; lactam 3-C) | 0.125 (≈ 0.112 µM) | 0.125 (≈ 0.112 µM) | 8 (≈ 7.19 µM) | 0.125 (≈ 0.112 µM) | 2 (≈ 1.8 µM) | 0.25 (≈ 0.225 µM) | 0.5 (≈ 0.449 µM) | 0.5 (≈ 0.449 µM) | >64 | >64 | – | >64 | 16 (≈ 14.4 µM) | 32 (≈ 28.8 µM) | – | – | – | – | – | – | –
9 | CC(C)C[C@@H]1NC(=O)[C@@H](CC2CCCCC2)NC(=O)[C@H](CCN)NC(=O)[C@@H](NC(=O)[C@H](CCN)NC(=O)[C@@H](NC(=O)CC(CN)CC2CCCCC2)[C@@H](C)O)CCNC(=O)[C@H]([C@@H](C)O)NC(=O)[C@H](CCN)NC(=O)[C@H](CCN)NC1=O (single isomer, unassigned; isomer 1) [Example 91, 4-amino-3-(cyclohexylmethyl) butanoyl polymyxin [D-cyclohexylalanine-6]nonapeptide. Isomer 1] | – | – | – | – | – | – | – | – | – | – | – | – | – | – | – | – | – | – | – | – | MIC A. baumanii ATCC BAA-747 ([1]; strain ATCC BAA-747): 0.25 mg/L (≈ 0.217 µM); MIC A. baumanii NCTC 13424 ([1]; strain NCTC 13424): 0.125 mg/L (≈ 0.109 µM); MIC E. coli 058 ([2]; strain 058): 4 mg/L (≈ 3.48 µM); MIC E. coli ATCC 25922 ([2]; strain ATCC 25922): 0.125 mg/L (≈ 0.109 µM); MIC K. pneumoniae 065 ([3]; strain 065): 4 mg/L (≈ 3.48 µM); MIC K. pneumoniae ATCC 13882 ([3]; strain ATCC 13882): 0.25 mg/L (≈ 0.217 µM); MIC P. aeruginosa ATCC 27853 ([4]; strain ATCC 27853): 0.25 mg/L (≈ 0.217 µM); MIC P. aeruginosa CCUG 59347 ([4]; strain CCUG 59347): 0.5 mg/L (≈ 0.435 µM)
